Reference: ChEMBL document CHEMBL3045611, “Identification of the G143A mutation associated with QoI resistance in Cercospora beticola field isolates from Michigan, United States” (Pest Manag Sci, 2013)
In brackets after ≈: the same amount, converted by molar mass.

Columns and labels:
Format in all cases: functional, organism-based
[1] = test system: Cercospora beticola; assay: Antifungal activity against Cercospora beticola isolate 11-1039-1 expressing cytb with alanine at codon 143 assessed as reduction in spore germination
[2] = test system: Cercospora beticola; assay: Antifungal activity against Cercospora beticola isolate 11-1022-2 expressing cytb with alanine at codon 143 assessed as reduction in spore germination
[3] = test system: Cercospora beticola; assay: Antifungal activity against Cercospora beticola isolate 11-1036-1 expressing cytb with alanine at codon 143 assessed as reduction in spore germination
[4] = test system: Cercospora beticola; assay: Antifungal activity against Cercospora beticola isolate 11-1007-1 expressing cytb with alanine at codon 143 assessed as reduction in spore germination
[5] = test system: Cercospora beticola; assay: Antifungal activity against Cercospora beticola isolate 11-1028-2 expressing cytb with alanine at codon 143 assessed as reduction in spore germination
[6] = test system: Cercospora beticola; assay: Antifungal activity against Cercospora beticola isolate 11-1038-2 expressing cytb with alanine at codon 143 assessed as reduction in spore germination
[7] = test system: Cercospora beticola; assay: Antifungal activity against Cercospora beticola isolate 11-1003-2 expressing cytb with alanine at codon 143 assessed as reduction in spore germination
[8] = test system: Cercospora beticola; assay: Antifungal activity against Cercospora beticola isolate 98-13-M expressing cytb with glycine at codon 143 assessed as reduction in spore germination
[9] = test system: Cercospora beticola; assay: Antifungal activity against Cercospora beticola isolate 11-1036-2 expressing cytb with alanine at codon 143 assessed as reduction in spore germination
[10] = test system: Cercospora beticola; assay: Antifungal activity against Cercospora beticola isolate 11-1041-1 expressing cytb with alanine at codon 143 assessed as reduction in spore germination
[11] = test system: Cercospora beticola; assay: Antifungal activity against Cercospora beticola isolate 11-1027-2 expressing cytb with alanine at codon 143 assessed as reduction in spore germination
[12] = test system: Cercospora beticola; assay: Antifungal activity against Cercospora beticola isolate 11-1040-1 expressing cytb with alanine at codon 143 assessed as reduction in spore germination
[13] = test system: Cercospora beticola; assay: Antifungal activity against Cercospora beticola isolate 11-1004-1 expressing cytb with alanine at codon 143 assessed as reduction in spore germination
[14] = test system: Cercospora beticola; assay: Antifungal activity against Cercospora beticola isolate 11-1027-1 expressing cytb with alanine at codon 143 assessed as reduction in spore germination
[15] = test system: Cercospora beticola; assay: Antifungal activity against Cercospora beticola isolate 11-1038-1 expressing cytb with alanine at codon 143 assessed as reduction in spore germination
[16] = test system: Cercospora beticola; assay: Antifungal activity against Cercospora beticola isolate 11-1046-2 expressing cytb with alanine at codon 143 assessed as reduction in spore germination
[17] = test system: Cercospora beticola; assay: Antifungal activity against Cercospora beticola isolate 11-1005-1 expressing cytb with alanine at codon 143 assessed as reduction in spore germination
[18] = test system: Cercospora beticola; assay: Antifungal activity against Cercospora beticola isolate 11-1015-2 expressing cytb with alanine at codon 143 assessed as reduction in spore germination
[19] = test system: Cercospora beticola; assay: Antifungal activity against Cercospora beticola isolate 11-1006-2 expressing cytb with alanine at codon 143 assessed as reduction in spore germination
[20] = test system: Cercospora beticola; assay: Antifungal activity against Cercospora beticola isolate 11-1028-1 expressing cytb with alanine at codon 143 assessed as reduction in spore germination
[21] = test system: Cercospora beticola; assay: Antifungal activity against Cercospora beticola isolate 11-1045-2 expressing cytb with alanine at codon 143 assessed as reduction in spore germination
[22] = test system: Cercospora beticola; assay: Antifungal activity against Cercospora beticola isolate 11-1009-1 expressing cytb with alanine at codon 143 assessed as reduction in spore germination
[23] = test system: Cercospora beticola; assay: Antifungal activity against Cercospora beticola isolate 98-9-M expressing cytb with glycine at codon 143 assessed as reduction in spore germination
[24] = test system: Cercospora beticola; assay: Antifungal activity against Cercospora beticola isolate 11-1014-1 expressing cytb with alanine at codon 143 assessed as reduction in spore germination
[25] = test system: Cercospora beticola; assay: Antifungal activity against Cercospora beticola isolate 11-1007-2 expressing cytb with alanine at codon 143 assessed as reduction in spore germination
[26] = test system: Cercospora beticola; assay: Antifungal activity against Cercospora beticola isolate 11-1042-1 expressing cytb with alanine at codon 143 assessed as reduction in spore germination
[27] = test system: Cercospora beticola; assay: Antifungal activity against Cercospora beticola isolate 11-1016-1 expressing cytb with alanine at codon 143 assessed as reduction in spore germination
[28] = test system: Cercospora beticola; assay: Antifungal activity against Cercospora beticola isolate 98-150-M expressing cytb with glycine at codon 143 assessed as reduction in spore germination
[29] = test system: Cercospora beticola; assay: Antifungal activity against Cercospora beticola isolate 11-1044-2 expressing cytb with alanine at codon 143 assessed as reduction in spore germination
[30] = test system: Cercospora beticola; assay: Antifungal activity against Cercospora beticola isolate 11-1022-1 expressing cytb with alanine at codon 143 assessed as reduction in spore germination
[31] = test system: Cercospora beticola; assay: Antifungal activity against Cercospora beticola isolate 11-1008-1 expressing cytb with alanine at codon 143 assessed as reduction in spore germination
[32] = test system: Cercospora beticola; assay: Antifungal activity against Cercospora beticola isolate 98-10-M expressing cytb with glycine at codon 143 assessed as reduction in spore germination
[33] = test system: Cercospora beticola; assay: Antifungal activity against Cercospora beticola isolate 99-233-3-M expressing cytb with glycine at codon 143 assessed as reduction in spore germination
[34] = test system: Cercospora beticola; assay: Antifungal activity against Cercospora beticola isolate 11-1044-1 expressing cytb with alanine at codon 143 assessed as reduction in spore germination
[35] = test system: Cercospora beticola; assay: Antifungal activity against Cercospora beticola isolate 98-19-M expressing cytb with glycine at codon 143 assessed as reduction in spore germination
[36] = test system: Cercospora beticola; assay: Antifungal activity against Cercospora beticola isolate 98-12-M expressing cytb with glycine at codon 143 assessed as reduction in spore germination
[37] = test system: Cercospora beticola; assay: Antifungal activity against Cercospora beticola isolate 11-1026-2 expressing cytb with alanine at codon 143 assessed as reduction in spore germination
[38] = test system: Cercospora beticola; assay: Antifungal activity against Cercospora beticola isolate 11-1040-2 expressing cytb with alanine at codon 143 assessed as reduction in spore germination
[39] = test system: Cercospora beticola; assay: Antifungal activity against Cercospora beticola isolate 11-1005-2 expressing cytb with alanine at codon 143 assessed as reduction in spore germination
[40] = test system: Cercospora beticola; assay: Antifungal activity against Cercospora beticola isolate 11-1015-1 expressing cytb with alanine at codon 143 assessed as reduction in spore germination
[41] = test system: Cercospora beticola; assay: Antifungal activity against Cercospora beticola isolate 11-1037-1 expressing cytb with alanine at codon 143 assessed as reduction in spore germination
[42] = test system: Cercospora beticola; assay: Antifungal activity against Cercospora beticola isolate 11-1035-2 expressing cytb with alanine at codon 143 assessed as reduction in spore germination
[43] = test system: Cercospora beticola; assay: Antifungal activity against Cercospora beticola isolate 11-1043-2 expressing cytb with alanine at codon 143 assessed as reduction in spore germination
[44] = test system: Cercospora beticola; assay: Antifungal activity against Cercospora beticola isolate 98-101-5-M expressing cytb with glycine at codon 143 assessed as reduction in spore germination
[45] = test system: Cercospora beticola; assay: Antifungal activity against Cercospora beticola isolate 11-1026-1 expressing cytb with alanine at codon 143 assessed as reduction in spore germination
[46] = test system: Cercospora beticola; assay: Antifungal activity against Cercospora beticola isolate 11-1046-1 expressing cytb with alanine at codon 143 assessed as reduction in spore germination
[47] = test system: Cercospora beticola; assay: Antifungal activity against Cercospora beticola isolate 99-521-29-M expressing cytb with glycine at codon 143 assessed as reduction in spore germination
[48] = test system: Cercospora beticola; assay: Antifungal activity against Cercospora beticola isolate 11-1037-2 expressing cytb with alanine at codon 143 assessed as reduction in spore germination
[49] = test system: Cercospora beticola; assay: Antifungal activity against Cercospora beticola isolate 11-1042-2 expressing cytb with alanine at codon 143 assessed as reduction in spore germination

CO/N=C(\C(=O)OC)c1ccccc1CO/N=C(\C)c1cccc(C(F)(F)F)c1 was tested, and the EC50 [1] was 6.79 µg/mL (≈ 16.6 µM), the EC50 [2] was 4.98 µg/mL (≈ 12.2 µM) and the EC50 [3] was 3.62 µg/mL (≈ 8.88 µM). The EC50 [4] was 7.65 µg/mL (≈ 18.7 µM), the EC50 [5] was 4.96 µg/mL (≈ 12.2 µM) and the EC50 [6] was 35.5 µg/mL (≈ 86.9 µM). It also gave an EC50 [7] of 1 µg/mL (≈ 2.45 µM), an EC50 [8] of 0.006 µg/mL (≈ 0.0147 µM) and an EC50 [9] of 8.15 µg/mL (≈ 20 µM). It also gave an EC50 [10] of 6.09 µg/mL (≈ 14.9 µM), an EC50 [11] of 6.06 µg/mL (≈ 14.8 µM) and an EC50 [12] of 7.64 µg/mL (≈ 18.7 µM). For the same compound, the EC50 [13] was 6.66 µg/mL (≈ 16.3 µM), the EC50 [14] was 29.7 µg/mL (≈ 72.8 µM) and the EC50 [15] was 19.9 µg/mL (≈ 48.6 µM). For the same compound, the EC50 [16] was 8.37 µg/mL (≈ 20.5 µM), the EC50 [17] was 9.54 µg/mL (≈ 23.4 µM) and the EC50 [18] was 7.79 µg/mL (≈ 19.1 µM). For the same compound, the EC50 [19] was 8.46 µg/mL (≈ 20.7 µM), the EC50 [20] was 7.62 µg/mL (≈ 18.7 µM) and the EC50 [21] was 7.02 µg/mL (≈ 17.2 µM). For the same compound, the EC50 [22] was 39.4 µg/mL (≈ 96.4 µM), the EC50 [23] was 0.004 µg/mL (≈ 0.00979 µM) and the EC50 [24] was 4.54 µg/mL (≈ 11.1 µM). It also gave an EC50 [25] of 6.84 µg/mL (≈ 16.8 µM), an EC50 [26] of 8.83 µg/mL (≈ 21.6 µM) and an EC50 [27] of 5.89 µg/mL (≈ 14.4 µM). For the same compound, the EC50 [28] was 0.004 µg/mL (≈ 0.00979 µM), the EC50 [29] was 8.56 µg/mL (≈ 21 µM) and the EC50 [30] was 6.86 µg/mL (≈ 16.8 µM). The EC50 [31] was 7.49 µg/mL (≈ 18.4 µM), the EC50 [32] was 0.001 µg/mL (≈ 0.00245 µM) and the EC50 [33] was 0.004 µg/mL (≈ 0.00979 µM). It also gave an EC50 [34] of 13.8 µg/mL (≈ 33.9 µM), an EC50 [35] of 0.005 µg/mL (≈ 0.0122 µM) and an EC50 [36] of 0.005 µg/mL (≈ 0.0122 µM). The EC50 [37] was 8.55 µg/mL (≈ 20.9 µM), the EC50 [38] was 13.7 µg/mL (≈ 33.4 µM) and the EC50 [39] was 3.25 µg/mL (≈ 7.96 µM). It also gave an EC50 [40] of 7.3 µg/mL (≈ 17.9 µM), an EC50 [41] of 6.78 µg/mL (≈ 16.6 µM) and an EC50 [42] of 6.36 µg/mL (≈ 15.6 µM). For the same compound, the EC50 [43] was 3.27 µg/mL (≈ 8 µM), the EC50 [44] was 0.006 µg/mL (≈ 0.0147 µM) and the EC50 [45] was 25.9 µg/mL (≈ 63.5 µM). The EC50 [46] was 5.48 µg/mL (≈ 13.4 µM), the EC50 [47] was 0.005 µg/mL (≈ 0.0122 µM) and the EC50 [48] was 4.24 µg/mL (≈ 10.4 µM). The EC50 [49] was 2.36 µg/mL (≈ 5.79 µM).
